According to patent publication US12281122B1, “PI3K inhibitors” (Cogent Biosciences, Inc., priority 2023, dated 2025):

Assays:
[1] = system: SKBR3 (PI3Kα-Wild Type) cell line; experiment: HTRF phospho-AKT(S473) cell assay in SKBR3 cells; format: cell-based, human; conditions: Homo sapiens, SK-BR-3, 2 hours compound incubation, PDGF-BB stimulated
How it was run: (§1)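 Cells plated overnight (T47D in RPMI/10% FBS/0.2 units/mL insulin; SKBR3 in McCoy's 5A/10% FBS), then given 12-point 1:3 compound series (top 5 μM T47D, 10 μM SKBR3; ≤0.5% DMSO) for 2 h at 37° C. SKBR3 stimulated with 70 ng/ml PDGF-BB for final 15 min. Lysate pAKT(S473) by HTRF; IC50 calculated.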

[2] = system: T47D (PI3Kα-H1047R) cell line; experiment: HTRF phospho-AKT(S473) cell assay in T47D cells; format: cell-based, human; conditions: Homo sapiens, 2 hours compound incubation
How it was run: as §1

[3] = SKBR3 (PI3Kα-Wild Type) cells, HTRF phospho-AKT(S473)
[4] = T47D (PI3Kα-H1047R) cells, HTRF phospho-AKT(S473)
[5] = HTRF phospho-AKT(S473), SKBR3 (PI3Kα-Wild Type) cells
[6] = HTRF phospho-AKT(S473), T47D (PI3Kα-H1047R) cells
[7] = SKBR3 (PI3Kα-Wild Type) cell line, phospho-AKT(S473) HTRF
[8] = T47D (PI3Kα-H1047R) cell line, phospho-AKT(S473) HTRF

Row | Structure (SMILES) | IC50 [1, 5] | IC50 [2, 6] | further results
1 | Cc1cc([C@@H](C)Nc2ccc(Cl)nc2C(=O)NS(C)(=O)=O)c2nc(N3CCC(c4ncn(C)n4)CC3)n(C)c(=O)c2c1 [Compound 253, (R)-6-chloro-3-((1-(3,6-dimethyl-2-(4-(1-methyl-1H-1,2,4-triazol-3-yl)piperidin-1-yl)-4-oxo-3,4-dihydroquinazolin-8-yl)ethyl)amino)-N-(methylsulfonyl) picolinamide] | – | – | IC50 [1, 3]: 1 to 5 µM; IC50 [2, 4]: 250 to 500 nM
2 | [2H]C([2H])([2H])n1ccc([C@H]2[C@@H]3CN(c4nc5c([C@@H](C)Nc6ccc(Cl)nc6C(=O)NS(C)(=O)=O)cc(C)cc5c(=O)n4C)C[C@@H]32)n1 [Compound 493, 6-chloro-3-(((R)-1-(3,6-dimethyl-2-((1R,5S,6R)-6-(1-(methyl-d3)-1H-pyrazol-3-yl)-3-azabicyclo[3.1.0]hexan-3-yl)-4-oxo-3,4-dihydroquinazolin-8-yl)ethyl)amino)-N-(methylsulfonyl) picolinamide] | 1 to 5 µM | < 250 nM | –
3 | Cc1cc([C@@H](C)Nc2ccc(Cl)nc2C(=O)NS(C)(=O)=O)c2nc(N3C[C@@H]4[C@H](C3)[C@H]4c3cnc(C)c(F)c3)n(C)c(=O)c2c1 [Compound 423, 6-chloro-3-(((R)-1-(2-((1R,5S,6S)-6-(5-fluoro-6-methylpyridin-3-yl)-3-azabicyclo[3.1.0]hexan-3-yl)-3,6-dimethyl-4-oxo-3,4-dihydroquinazolin-8-yl)ethyl)amino)-N-(methylsulfonyl) picolinamide] | – | – | IC50 [1, 3]: ≥ 5 µM; IC50 [2, 4]: 250 to 500 nM
4 | Cc1cc([C@@H](C)Nc2ccc(Cl)nc2C(=O)NS(C)(=O)=O)c2nc(N3C[C@@H]4[C@H](C3)[C@H]4c3cn(CC(F)(F)F)nn3)n(C)c(=O)c2c1 [Compound 478, 6-chloro-3-(((R)-1-(3,6-dimethyl-4-oxo-2-((1R,5S,6R)-6-(1-(2,2,2-trifluoroethyl)-1H-1,2,3-triazol-4-yl)-3-azabicyclo[3.1.0]hexan-3-yl)-3,4-dihydroquinazolin-8-yl)ethyl)amino)-N-(methylsulfonyl) picolinamide] | 1 to 5 µM | < 250 nM | –
5 | Cc1cc([C@@H](C)Nc2ccc(Cl)nc2C(=O)NS(C)(=O)=O)c2nc(N3Cc4cnn([C@@H](C)C(F)(F)F)c4C3)n(C)c(=O)c2c1 (relative stereo) [Compound 284, 6-chloro-3-(((R)-1-(3,6-dimethyl-4-oxo-2-(1-((R*)-1,1,1-trifluoropropan-2-yl)-4,6-dihydropyrrolo[3,4-c]pyrazol-5(1H)-yl)-3,4-dihydroquinazolin-8-yl)ethyl)amino)-N-(methylsulfonyl) picolinamide] | – | – | IC50 [1, 3]: 1 to 5 µM; IC50 [2, 4]: < 250 nM
6 | Cc1cc([C@@H](C)Nc2ccc(Cl)nc2C(=O)NS(C)(=O)=O)c2nc(N3CCC4(CCN(c5ccn(C)n5)C4)C3)n(C)c(=O)c2c1 (stereo partly drawn) [Compound 371, 6-chloro-3-(((1R)-1-(3,6-dimethyl-2-(7-(1-methyl-1H-pyrazol-3-yl)-2,7-diazaspiro[4.4]nonan-2-yl)-4-oxo-3,4-dihydroquinazolin-8-yl)ethyl)amino)-N-(methylsulfonyl) picolinamide] | – | – | IC50 [1, 3]: 1 to 5 µM; IC50 [2, 4]: < 250 nM
7 | Cc1cc([C@@H](C)Nc2ccc(Cl)nc2C(=O)NS(C)(=O)=O)c2nc(N3CC[C@@H](Oc4cncnc4)C3)n(C)c(=O)c2c1 [Compound 707, 6-chloro-3-(((R)-1-(3,6-dimethyl-4-oxo-2-((R)-3-(pyrimidin-5-yloxy)pyrrolidin-1-yl)-3,4-dihydroquinazolin-8-yl)ethyl)amino)-N-(methylsulfonyl) picolinamide] | 1 to 5 µM | 250 to 500 nM | –
8 | Cc1cc([C@@H](C)Nc2ccc(Cl)nc2C(=O)NS(C)(=O)=O)c2nc(-c3ccc(-c4nc(C)no4)nc3)n(C)c(=O)c2c1 [Compound 843, (R)-6-chloro-3-((1-(3,6-dimethyl-2-(6-(3-methyl-1,2,4-oxadiazol-5-yl)pyridin-3-yl)-4-oxo-3,4-dihydroquinazolin-8-yl)ethyl)amino)-N-(methylsulfonyl) picolinamide] | – | – | IC50 [1, 7]: 1 to 5 µM; IC50 [2, 8]: 250 to 500 nM
9 | Cc1cc([C@@H](C)Nc2ccc(Cl)nc2C(=O)NS(C)(=O)=O)c2nc(N3CCc4c(cnn4C4COC4)C3)n(C)c(=O)c2c1 [Compound 335, (R)-6-chloro-3-((1-(3,6-dimethyl-2-(1-(oxetan-3-yl)-1,4,6,7-tetrahydro-5H-pyrazolo[4,3-c]pyridin-5-yl)-4-oxo-3,4-dihydroquinazolin-8-yl)ethyl)amino)-N-(methylsulfonyl) picolinamide] | – | – | IC50 [1, 3]: 1 to 5 µM; IC50 [2, 4]: < 250 nM
10 | Cc1cc([C@@H](C)Nc2ccc(Cl)nc2C(=O)NS(C)(=O)=O)c2nc(-c3ccc4nc(C)cn4c3)n(C)c(=O)c2c1 [Compound 844, (R)-6-chloro-3-((1-(3,6-dimethyl-2-(2-methylimidazo[1,2-a]pyridin-6-yl)-4-oxo-3,4-dihydroquinazolin-8-yl)ethyl)amino)-N-(methylsulfonyl) picolinamide] | – | – | IC50 [1, 7]: 1 to 5 µM; IC50 [2, 8]: 250 to 500 nM
11 | COc1nccc(N2C[C@@H]3C[C@H]2CN3c2nc3c([C@@H](C)Nc4ccc(Cl)nc4C(=O)NS(C)(=O)=O)cc(C)cc3c(=O)n2C)n1 [Compound 581, 6-chloro-3-(((R)-1-(2-((1S,4S)-5-(2-methoxypyrimidin-4-yl)-2,5-diazabicyclo [2.2.1]heptan-2-yl)-3,6-dimethyl-4-oxo-3,4-dihydroquinazolin-8-yl)ethyl)amino)-N-(methylsulfonyl) picolinamide] | ≥ 5 µM | 250 to 500 nM | –
12 | Cc1cc([C@@H](C)Nc2ccc(Cl)nc2C(=O)NS(C)(=O)=O)c2nc(N3CCC(c4nnc(C5CCC5)o4)CC3)n(C)c(=O)c2c1 [Compound 629, (R)-6-chloro-3-((1-(2-(4-(5-cyclobutyl-1,3,4-oxadiazol-2-yl)piperidin-1-yl)-3,6-dimethyl-4-oxo-3,4-dihydroquinazolin-8-yl)ethyl)amino)-N-(methylsulfonyl) picolinamide] | 1 to 5 µM | < 250 nM | –
13 | Cc1cc([C@@H](C)Nc2ccc(Cl)nc2C(=O)NS(C)(=O)=O)c2nc(-c3ccc(-c4ccn(C)n4)cn3)n(C)c(=O)c2c1 [Compound 838, (R)-6-chloro-3-((1-(3,6-dimethyl-2-(5-(1-methyl-1H-pyrazol-3-yl)pyridin-2-yl)-4-oxo-3,4-dihydroquinazolin-8-yl)ethyl)amino)-N-(methylsulfonyl) picolinamide] | 1 to 5 µM | 250 to 500 nM | –

More lines, main results first:

Row | IC50 [1, 5] | IC50 [2, 6] | Structure (SMILES) | further results
14 | 1 to 5 µM | < 250 nM | Cc1cc([C@@H](C)Nc2ccc(Cl)nc2C(=O)NS(C)(=O)=O)c2nc(N3Cc4cn(Cc5ccccc5)nc4C3)n(C)c(=O)c2c1 [Compound 684, (R)-3-((1-(2-(2-benzyl-2,6-dihydropyrrolo[3,4-c]pyrazol-5(4H)-yl)-3,6-dimethyl-4-oxo-3,4-dihydroquinazolin-8-yl)ethyl)amino)-6-chloro-N-(methylsulfonyl) picolinamide] | –
15 | 1 to 5 µM | < 250 nM | COc1cc(N2CCN(c3nc4c([C@@H](C)Nc5ccc(Cl)nc5C(=O)NS(C)(=O)=O)cc(C)cc4c(=O)n3C)CC2)ccn1 [Compound 554, (R)-6-chloro-3-((1-(2-(4-(2-methoxypyridin-4-yl)piperazin-1-yl)-3,6-dimethyl-4-oxo-3,4-dihydroquinazolin-8-yl)ethyl)amino)-N-(methylsulfonyl) picolinamide] | –
16 | ≥ 5 µM | 250 to 500 nM | Cc1cc([C@@H](C)Nc2ccc(Cl)nc2C(=O)NS(C)(=O)=O)c2nc(N3CCC(c4n[nH]cc4Cl)CC3)n(C)c(=O)c2c1 [Compound 717, (R)-6-chloro-3-((1-(2-(4-(4-chloro-1H-pyrazol-3-yl)piperidin-1-yl)-3,6-dimethyl-4-oxo-3,4-dihydroquinazolin-8-yl)ethyl)amino)-N-(methylsulfonyl) picolinamide] | –
17 | 1 to 5 µM | < 250 nM | CC(=O)N1CCC(c2ccc(-c3nc4c([C@@H](C)Nc5ccc(Cl)nc5C(=O)NS(C)(=O)=O)cc(C)cc4c(=O)n3C)c(F)c2)CC1 [Compound 780, (R)-3-((1-(2-(4-(1-acetylpiperidin-4-yl)-2-fluorophenyl)-3,6-dimethyl-4-oxo-3,4-dihydroquinazolin-8-yl)ethyl)amino)-6-chloro-N-(methylsulfonyl) picolinamide] | –
18 | ≥ 5 µM | 500 to 1000 nM | COc1cc(N2C[C@H]3C[C@@H]2CN3c2nc3c([C@@H](C)Nc4ccc(Cl)nc4C(=O)NS(C)(=O)=O)cc(C)cc3c(=O)n2C)ccn1 [Compound 639, 6-chloro-3-(((R)-1-(2-((1R,4R)-5-(2-methoxypyridin-4-yl)-2,5-diazabicyclo [2.2.1]heptan-2-yl)-3,6-dimethyl-4-oxo-3,4-dihydroquinazolin-8-yl)ethyl)amino)-N-(methylsulfonyl) picolinamide] | –
19 | ≥ 5 µM | < 250 nM | Cc1cc([C@@H](C)Nc2ccc(Cl)nc2C(=O)NS(C)(=O)=O)c2nc(N3CCC(c4cc(C)no4)CC3)n(C)c(=O)c2c1 [Compound 539, (R)-6-chloro-3-((1-(3,6-dimethyl-2-(4-(3-methylisoxazol-5-yl)piperidin-1-yl)-4-oxo-3,4-dihydroquinazolin-8-yl)ethyl)amino)-N-(methylsulfonyl) picolinamide] | –
